Test systems include SK-OV-3 ovarian; SN12C renal; HS 578T breast; NCI-H226 lung; 786-0 renal; SK-MEL-5 melanoma; MDA-MB-435; RPMI-8226 leukemia; KM12 colon; SF-268 CNS.
Common to all, as to assay: NCI anticancer screen, dose series, 48 h

The values that follow come from PubChem BioAssay (NCI).

Each structure is given as a SMILES string.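 1) Cells in 96-well plates. 2) Compound, 48 h, 5 concentrations. 3) Linear interpolation between surrounding doses. 4) Unreached endpoint = highest concentration. TGI: total growth inhibition.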

Regarding `Cc1ccc(S(=O)(=O)N(CC(O)c2ccccc2)c2ccccc2F)cc1` (stereo not given), the TGI with SK-OV-3 ovarian was 38.4 µM; with SN12C renal it was 34.3 µM; with HS 578T breast, 41.1 µM; in the assay on NCI-H226 lung, 48.7 µM; with 786-0 renal, 34.7 µM; with SK-MEL-5 melanoma it was 29.6 µM. The TGI was determined as 32.9 µM in the assay with MDA-MB-435, 39 µM in the assay with RPMI-8226 leukemia, 42.6 µM in the assay with KM12 colon and 31.1 µM in the assay on SF-268 CNS.
On to `COc1ccc(-c2cc(C3CC3)nc(SCC(=O)O)c2C#N)cc1`, for which the TGI in the assay on SK-OV-3 ovarian, in the assay on SN12C renal, in the assay with HS 578T breast, in the assay on NCI-H226 lung, in the assay with 786-0 renal and with SK-MEL-5 melanoma was greater than 100 µM throughout. For the same compound, the TGI in the assay with MDA-MB-435, in the assay with RPMI-8226 leukemia, in the assay with KM12 colon and in the assay on SF-268 CNS was greater than 100 µM each time.
As to `Cc1ccc(C(=O)Cc2nc3ncccc3[nH]c2=O)cc1`, the TGI in the assay with SK-OV-3 ovarian was 45.4 µM; in the assay on SN12C renal, greater than 100 µM; in the assay with HS 578T breast, 71.3 µM; in the assay on NCI-H226 lung it was 66.5 µM; in the assay on 786-0 renal, 45.3 µM; with SK-MEL-5 melanoma, greater than 100 µM. Besides, the TGI with MDA-MB-435 is 39.8 µM; with RPMI-8226 leukemia it was greater than 100 µM; in the assay on KM12 colon, greater than 100 µM; in the assay on SF-268 CNS, 99.7 µM.
Turning to `c1ccc2c(c1)CCN(C1=NCCO1)C2`, the TGI in the assay with SK-OV-3 ovarian, with SN12C renal, in the assay on HS 578T breast, in the assay on NCI-H226 lung, in the assay with 786-0 renal and in the assay on SK-MEL-5 melanoma was greater than 10 µM in each case. In addition, the TGI in the assay with MDA-MB-435, in the assay with RPMI-8226 leukemia, with KM12 colon and in the assay on SF-268 CNS was greater than 10 µM each time.
With `NC(CCl)=NC1CN2CCC1CC2` (stereo not given), the TGI in the assay with SK-OV-3 ovarian, in the assay with SN12C renal, with HS 578T breast, with NCI-H226 lung, in the assay on 786-0 renal and with SK-MEL-5 melanoma was greater than 100 µM throughout. Besides, the TGI with MDA-MB-435, in the assay on RPMI-8226 leukemia, with KM12 colon and with SF-268 CNS was greater than 100 µM in each case.
On to `CN(C)c1ccc(/C=N/n2c(-c3ccccc3)nc3ccccc3c2=O)cc1`, for which the TGI in the assay with SK-OV-3 ovarian is greater than 100 µM; with SN12C renal it was greater than 100 µM; with HS 578T breast it was 92.4 µM; in the assay with NCI-H226 lung, greater than 100 µM; in the assay on 786-0 renal it was greater than 100 µM; with SK-MEL-5 melanoma it was greater than 100 µM. Moreover, the TGI with MDA-MB-435, in the assay on RPMI-8226 leukemia, in the assay with KM12 colon and with SF-268 CNS was greater than 100 µM each time.
